What all share (assay): biochemical
The target in assay [1] is T1, panel of 374 wild-type kinases (Homo sapiens, UniProt P17252).
T1 construct: purchased Reaction Biology Corporation
The note with it: read-out: % Enzyme Activity (relative to DMSO controls), kinase PKCa.

The target in assay [2] is T2, panel of 374 wild-type kinases (Homo sapiens, UniProt Q96PY6).
T2 construct: purchased Reaction Biology Corporation
T2 sequence (Q96PY6 1-1258): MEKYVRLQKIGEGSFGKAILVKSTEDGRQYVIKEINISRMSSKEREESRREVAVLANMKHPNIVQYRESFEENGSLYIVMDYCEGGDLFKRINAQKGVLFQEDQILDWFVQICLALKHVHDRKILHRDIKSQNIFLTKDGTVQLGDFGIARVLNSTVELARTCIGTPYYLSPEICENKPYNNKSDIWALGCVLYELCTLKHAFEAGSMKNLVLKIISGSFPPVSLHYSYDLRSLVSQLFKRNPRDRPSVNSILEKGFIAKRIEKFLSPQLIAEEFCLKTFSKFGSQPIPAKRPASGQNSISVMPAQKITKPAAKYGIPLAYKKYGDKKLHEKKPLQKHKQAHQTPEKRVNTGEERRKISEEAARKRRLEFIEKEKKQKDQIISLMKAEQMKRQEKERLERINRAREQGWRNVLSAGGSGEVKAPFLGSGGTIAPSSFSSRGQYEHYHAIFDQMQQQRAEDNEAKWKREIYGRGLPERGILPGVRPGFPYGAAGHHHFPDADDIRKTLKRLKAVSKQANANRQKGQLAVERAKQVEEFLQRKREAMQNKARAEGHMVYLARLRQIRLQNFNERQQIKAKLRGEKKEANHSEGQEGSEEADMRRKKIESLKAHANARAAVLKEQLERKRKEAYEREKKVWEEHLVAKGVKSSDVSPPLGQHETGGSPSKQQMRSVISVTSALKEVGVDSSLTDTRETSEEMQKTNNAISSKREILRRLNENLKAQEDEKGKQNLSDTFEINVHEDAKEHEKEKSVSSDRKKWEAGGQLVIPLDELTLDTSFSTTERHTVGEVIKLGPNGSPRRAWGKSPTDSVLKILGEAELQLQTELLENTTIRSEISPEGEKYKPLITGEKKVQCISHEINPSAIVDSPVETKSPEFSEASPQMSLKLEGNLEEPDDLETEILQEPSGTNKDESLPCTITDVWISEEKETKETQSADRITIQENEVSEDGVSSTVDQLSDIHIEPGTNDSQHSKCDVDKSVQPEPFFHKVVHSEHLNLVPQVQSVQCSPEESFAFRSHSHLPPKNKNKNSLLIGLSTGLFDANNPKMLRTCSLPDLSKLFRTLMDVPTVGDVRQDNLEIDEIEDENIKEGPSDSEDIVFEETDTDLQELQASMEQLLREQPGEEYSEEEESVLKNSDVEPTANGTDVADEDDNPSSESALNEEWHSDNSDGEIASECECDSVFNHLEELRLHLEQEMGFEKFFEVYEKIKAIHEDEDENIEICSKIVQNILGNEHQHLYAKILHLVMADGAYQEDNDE
The note with it: read-out: % Enzyme Activity (relative to DMSO controls), NEK1.

For assay [3], the target named is T3, panel of 374 wild-type kinases (Homo sapiens, UniProt P08069).
T3 construct: purchased Reaction Biology Corporation
T3 sequence (P08069 31-1367): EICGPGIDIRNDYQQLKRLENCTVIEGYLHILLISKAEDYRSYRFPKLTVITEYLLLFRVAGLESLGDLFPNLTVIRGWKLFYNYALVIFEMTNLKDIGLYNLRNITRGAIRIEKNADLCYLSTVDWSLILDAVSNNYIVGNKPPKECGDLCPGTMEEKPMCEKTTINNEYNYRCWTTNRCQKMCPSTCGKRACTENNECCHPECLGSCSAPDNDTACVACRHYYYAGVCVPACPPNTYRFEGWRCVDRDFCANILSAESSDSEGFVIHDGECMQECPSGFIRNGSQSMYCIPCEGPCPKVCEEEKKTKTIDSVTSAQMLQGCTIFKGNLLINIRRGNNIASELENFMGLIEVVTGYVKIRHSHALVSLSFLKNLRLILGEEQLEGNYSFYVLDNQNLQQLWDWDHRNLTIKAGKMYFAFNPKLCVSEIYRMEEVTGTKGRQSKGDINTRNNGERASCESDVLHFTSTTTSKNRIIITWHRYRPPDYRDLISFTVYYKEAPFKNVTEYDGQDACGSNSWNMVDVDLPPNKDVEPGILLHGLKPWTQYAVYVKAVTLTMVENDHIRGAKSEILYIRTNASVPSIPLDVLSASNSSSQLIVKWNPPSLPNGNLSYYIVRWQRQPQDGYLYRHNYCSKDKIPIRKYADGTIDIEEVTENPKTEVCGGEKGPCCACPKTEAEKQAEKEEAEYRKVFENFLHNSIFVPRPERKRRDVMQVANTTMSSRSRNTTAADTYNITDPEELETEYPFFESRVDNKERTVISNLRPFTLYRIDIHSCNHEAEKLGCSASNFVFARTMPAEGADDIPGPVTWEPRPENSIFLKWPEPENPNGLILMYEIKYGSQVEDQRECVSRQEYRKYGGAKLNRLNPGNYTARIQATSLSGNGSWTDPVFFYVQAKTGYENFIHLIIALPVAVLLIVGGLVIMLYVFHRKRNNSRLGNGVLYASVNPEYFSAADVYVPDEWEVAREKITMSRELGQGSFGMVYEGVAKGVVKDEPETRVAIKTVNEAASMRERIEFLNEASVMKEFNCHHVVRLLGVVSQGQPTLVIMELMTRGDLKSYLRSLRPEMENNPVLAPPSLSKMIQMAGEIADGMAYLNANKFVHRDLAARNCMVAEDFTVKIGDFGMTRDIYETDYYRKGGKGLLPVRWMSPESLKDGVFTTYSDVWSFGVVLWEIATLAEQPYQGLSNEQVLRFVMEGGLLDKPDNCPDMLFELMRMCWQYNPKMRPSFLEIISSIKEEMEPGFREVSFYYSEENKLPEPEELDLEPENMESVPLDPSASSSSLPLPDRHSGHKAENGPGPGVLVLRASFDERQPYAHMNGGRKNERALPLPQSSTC
Conditions: read-out: % Enzyme Activity (relative to DMSO controls), IGF1R.

The target in assay [4] is T4, panel of 374 wild-type kinases (Homo sapiens, UniProt Q99986).
T4 construct: purchased Reaction Biology Corporation
T4 sequence (Q99986 1-396): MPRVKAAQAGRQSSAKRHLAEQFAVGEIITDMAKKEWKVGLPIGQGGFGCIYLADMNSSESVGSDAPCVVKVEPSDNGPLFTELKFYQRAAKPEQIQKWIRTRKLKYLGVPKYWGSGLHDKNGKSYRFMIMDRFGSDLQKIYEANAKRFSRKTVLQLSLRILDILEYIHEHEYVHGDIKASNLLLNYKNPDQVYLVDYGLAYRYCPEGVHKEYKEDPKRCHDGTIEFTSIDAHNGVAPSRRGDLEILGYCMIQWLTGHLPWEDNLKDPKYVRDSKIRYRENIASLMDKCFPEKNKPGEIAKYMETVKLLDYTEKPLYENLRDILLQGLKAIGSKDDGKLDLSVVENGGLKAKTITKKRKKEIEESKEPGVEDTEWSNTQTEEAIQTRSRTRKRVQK
Conditions: read-out: % Enzyme Activity (relative to DMSO controls), kinase VRK1.

Assay [5] has as its target T5, panel of 374 wild-type kinases (Homo sapiens, UniProt Q32MK0).
T5 construct: purchased Reaction Biology Corporation
T5 sequence (Q32MK0 1-819): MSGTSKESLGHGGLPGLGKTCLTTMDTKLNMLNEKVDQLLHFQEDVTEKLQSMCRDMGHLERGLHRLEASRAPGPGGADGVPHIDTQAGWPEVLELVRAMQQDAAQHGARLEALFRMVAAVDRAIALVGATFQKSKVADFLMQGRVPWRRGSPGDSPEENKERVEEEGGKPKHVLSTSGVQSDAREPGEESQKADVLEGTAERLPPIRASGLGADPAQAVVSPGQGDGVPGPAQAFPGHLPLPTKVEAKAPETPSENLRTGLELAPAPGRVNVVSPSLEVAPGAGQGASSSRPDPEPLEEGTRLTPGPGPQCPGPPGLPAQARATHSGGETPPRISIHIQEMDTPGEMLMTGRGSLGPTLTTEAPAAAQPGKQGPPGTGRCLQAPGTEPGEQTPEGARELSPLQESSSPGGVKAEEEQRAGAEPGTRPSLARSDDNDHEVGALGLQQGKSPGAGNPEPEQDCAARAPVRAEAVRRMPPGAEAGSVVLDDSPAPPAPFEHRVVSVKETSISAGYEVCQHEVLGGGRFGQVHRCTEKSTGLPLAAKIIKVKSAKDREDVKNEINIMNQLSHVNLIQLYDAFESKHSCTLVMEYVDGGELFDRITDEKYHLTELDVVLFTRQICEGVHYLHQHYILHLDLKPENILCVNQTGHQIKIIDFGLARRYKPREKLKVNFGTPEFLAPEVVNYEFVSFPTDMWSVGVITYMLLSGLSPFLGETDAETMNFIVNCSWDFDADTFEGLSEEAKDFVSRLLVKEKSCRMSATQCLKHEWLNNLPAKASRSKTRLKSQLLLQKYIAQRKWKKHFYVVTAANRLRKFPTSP
The note with it: read-out: % Enzyme Activity (relative to DMSO controls), MYLK3.

Take `Cc1sc(C(=O)NC2COC2)cc1-n1cc(NC(=O)Nc2c(F)cccc2Cl)cn1` [Compound 27, 4-(4-(3-(2-chloro-6-fluorophenyl)ureido)-1H-pyrazol-1-yl)-5-methyl-N-(oxetan-3-yl)thiophene-2-carboxamide]: the remaining activity at 10 µM in assay [1] (10 uM) stood at 95.9%; in assay [2] (10 uM), 90.4%; in assay [3] (10 uM), 102%; in assay [4] (10 uM), 109%; in assay [5] (10 uM), 112%.
`O=C(Nc1cnn(-c2csc(C(=O)NC3COC3)c2)c1)Nc1c(F)cccc1Cl` [Compound 25, 4-(4-(3-(2-chloro-6-fluorophenyl)ureido)-1H-pyrazol-1-yl)-N-(oxetan-3-yl)thiophene-2-carboxamide]: the remaining activity at 5 µM in assay [1] was determined as 90.7%; in assay [2], 77.2%; in assay [3], 94.9%; in assay [4], 91.9%; in assay [5], 102%.
`O=C(Nc1cnn(-c2csc(C(=O)NC3COC3)c2)c1)Nc1ccccc1Cl` [Compound 17, 4-(4-(3-(2-chlorophenyl)ureido)-1H-pyrazol-1-yl)-N-(oxetan-3-yl)thiophene-2-carboxamide]: the remaining activity at 5 µM in assay [1] was 101%; in assay [2] it was 115%; in assay [3], 95.8%; in assay [4], 109%; in assay [5], 95.1%.
